Data published in US20070148643A1, “Treatment of Huntington's Disease with EPA” (priority 2002, published 2007).

Key:
[1] = test system: severely disabled patients in the final stages of Huntington's disease; conditions: 2 g/day, 6 months, cited from earlier work
[2] = test system: patients with genetically-confirmed HD; assay: one year randomised placebo-controlled trial of ethyl-EPA in HD, total motor score (TMS) subscale of the UHDRS; type: in vivo, human
Description: 135 patients with genetically-confirmed HD were entered into a one year trial. They were randomised to receive either 2 g/day of ethyl-EPA or an identical-appearing placebo. They were evaluated at baseline, six months and 12 months on the total motor score (TMS) subscale of the Unified Huntington's Disease Rating Scale (UHDRS). The UHDRS is the standard rating scale which is used to monitor the development of HD. The TMS is the component of the UHDRS which changes most reliably, rapidly and consistently and is therefore appropriate for monitoring the outcome of clinical trials. At the end of one year, change in TMS was compared in the placebo group and the ethyl-EPA group. […] However, when patients were stratified on the basis of their CAG repeat numbers, a dramatic benefit of ethyl-EPA was uncovered. […] Placebo patients with CAG repeat numbers 45 and below deteriorated by an average of 5.3%. In contrast, the same group of patients on ethyl-EPA improved over the year by 19.3%. This difference was highly statistically significant on either analysis of covariance or on chi square testing. […] Previously the best that had been hoped for in neurodegenerative diseases like HD was a slowing of deterioration rather than any actual improvement. […] Putting it another way, the treated patients had gained at least four and a half years of useful life.

CC/C=C\C/C=C\C/C=C\C/C=C\C/C=C\CCCC(=O)OCC [ethyl-EPA, ethyl ester of eicosapentaenoate]
clinical course (abnormal movements, emotional lability and irritability, memory and cognitive function) ([1]; three patients on ethyl-EPA, four on placebo): all three patients who improved were found to be taking ethyl-EPA | lateral ventricle size by MRI ([1]; two patients on ethyl-EPA, beginning versus end of study): reduction in lateral ventricle size | proportion of patients improving on TMS ([2]; 2 g/day, CAG repeats 45 and below): great majority of patients on ethyl-EPA actually improved | improvement in TMS over the year, patients with CAG repeat numbers 45 and below ([2]; 2 g/day, CAG repeats 45 and below, placebo deteriorated by 5.3%): 19.3% | benefit versus placebo, patients with CAG repeat numbers of 45 or below ([2]; 2 g/day, CAG repeats 45 or below (below 45)): large benefit | change in TMS versus placebo, patients with CAG repeat number of 46 or more ([2]; 2 g/day, CAG repeats 46 or more): did not show any difference at all between placebo and ethyl-EPA | change in TMS versus placebo, all patients ([2]; 2 g/day, all patients (not stratified)): better outcome on ethyl-EPA than on placebo but this was not statistically significant | improvement relative to the change in patients on placebo over one year ([2]; CAG repeats 45 and below): more than three and a half times more | separation of EPA and placebo patients in years of disease progression after one year ([2]; CAG repeats 45 and below): more than four and a half years
